# According to publication PMC5727165, “A switch in nucleotide affinity governs activation of the Src and Tec family kinases” (Scientific Reports, 2017):
# Values joined by “and” are separate entries in the source; they are usually repeats but may differ in a detail not shown here. Equal values may be shown once.
# What was measured:
# Itk^32K = biological target: T1, Itk^32K (Homo sapiens, UniProt Q08881); assay: Fluorescence anisotropy binding of Mant-labelled nucleotides; details: wild type Itk^32K; 40 μM Mant-nucleotide, 20 °C
# T1 construct: Human Itk^171–620 (Itk^32K); GST (cleaved yes); made in house; host or cells: baculovirus-infected Sf9 insect cells
# T1 sequence (Q08881 171-620): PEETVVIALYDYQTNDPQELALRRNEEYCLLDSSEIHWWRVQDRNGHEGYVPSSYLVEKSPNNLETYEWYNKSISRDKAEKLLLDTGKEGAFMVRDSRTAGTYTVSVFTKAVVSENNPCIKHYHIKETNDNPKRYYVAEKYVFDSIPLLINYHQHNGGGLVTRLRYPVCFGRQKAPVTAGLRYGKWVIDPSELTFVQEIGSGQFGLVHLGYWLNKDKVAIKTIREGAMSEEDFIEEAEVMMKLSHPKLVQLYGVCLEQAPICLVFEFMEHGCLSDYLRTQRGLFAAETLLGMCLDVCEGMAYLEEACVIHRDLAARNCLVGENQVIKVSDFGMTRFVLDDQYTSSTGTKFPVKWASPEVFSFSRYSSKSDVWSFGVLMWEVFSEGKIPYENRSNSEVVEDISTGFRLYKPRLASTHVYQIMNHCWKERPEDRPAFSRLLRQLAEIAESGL
# Description: (§1) To characterise the nucleotide binding of Itk and Src, we purified recombinant wild type and mutant constructs of Itk and Src containing their respective SH3, SH2, and kinase domains (from here on referred to as Itk^32K, Src^32K, and Src^32KΔC, Fig. 1a). We confirmed the mass and homogeneity of isolated species by high-resolution anion exchange chromatography, intact mass spectrometry, and Western blotting with phospho-specific antibodies (Supplementary Figs 1–3). We performed fluorescence anisotropy measurements using Mant-labelled nucleotides. […] To avoid autophosphorylation during the course of the titration, we used the non-hydrolysable ATP analogue AMPPNP. […] Src^32K bound ADP approximately 6-fold more tightly than AMPPNP (Supplementary Fig. 4d).
# (§2) Human Itk^171–620 (Itk^32K), mouse Src^85-535 (Src^32K), and mouse Src^85-523 (Src^32KΔC) as well as their respective point mutants were expressed as GST fusions in baculovirus-infected Sf9 insect cells. For the generation of Tyr527-phosphorylated Src^85-535, the protein was co-expressed with human Csk using pFastBac Dual (Invitrogen). Proteins were purified by sequential glutathione-sepharose affinity chromatography, TEV cleavage, high-resolution anion exchange, and size exclusion chromatography in a final buffer of 50 mM Tris, pH 7.5, 200 mM NaCl, 1 mM TCEP, 1% (v/v) glycerol.
# (§3) The binding constants for ADP and AMPPNP were determined for Src and Itk proteins by fluorescence anisotropy, using 2′/3′-Mant-labelled nucleotides (Jena Bioscience). Increasing concentrations of Itk^32K, Itk^L351A or Src^32K were incubated with 40 μM Mant-nucleotide in 30 mM Tris pH 7.5, 200 mM NaCl, 5 mM MgCl2, and 1 mM TCEP. Measurements were made with a Perkin Elmer LS50B fluorimeter (λex = 355 nm, λem = 447 nm) at 20 °C. For each data point 50–60 measurements, each with an integration time of 1 s, were averaged. For competition nucleotide displacement assays, 40–80 μM of protein was incubated with 40 μM Mant-ADP until equilibrium was established. Unlabelled nucleotide was titrated into the reaction and fluorescence anisotropy monitored. The equilibrium inhibition constant for the unlabelled nucleotide was calculated from the fitted curve.
# Src^32K = biological target: T2, Src^32K (Mus musculus, UniProt P05480); assay: as above
# T2 construct: mouse Src^85-535 (Src^32K); GST (cleaved yes); made in house; host or cells: baculovirus-infected Sf9 insect cells, co-expressed with human Csk
# Description: as §1, §2, §3
# T2 sequence (P05480 85-535): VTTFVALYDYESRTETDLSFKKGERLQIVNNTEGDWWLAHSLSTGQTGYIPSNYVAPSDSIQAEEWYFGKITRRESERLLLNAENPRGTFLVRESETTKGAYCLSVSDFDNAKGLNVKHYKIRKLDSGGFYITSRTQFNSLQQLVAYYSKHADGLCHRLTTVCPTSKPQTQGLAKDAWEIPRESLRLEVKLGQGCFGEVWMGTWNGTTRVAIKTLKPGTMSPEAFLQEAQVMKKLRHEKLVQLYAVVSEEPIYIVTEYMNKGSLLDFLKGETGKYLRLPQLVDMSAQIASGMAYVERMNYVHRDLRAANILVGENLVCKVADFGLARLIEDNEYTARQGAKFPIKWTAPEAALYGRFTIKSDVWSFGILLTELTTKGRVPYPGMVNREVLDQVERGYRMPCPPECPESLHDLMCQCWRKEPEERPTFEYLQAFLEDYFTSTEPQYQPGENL
smiles,measurement,setting,value
Nc1ncnc2c1ncn2[C@@H]1O[C@H](COP(=O)(O)OP(=O)(O)O)[C@@H](O)[C@H]1O [ADP],Kd,Itk^32K,23.7 µM and 24 µM
same,Kd,Src^32K; Mant-labelled nucleotide,66 µM
same,"fold difference in affinity, ADP tighter than AMPPNP",Src^32K; direct Mant-nucleotide binding,approximately 6 fold
